Laboratory results taken from ChEMBL document CHEMBL3822442, “Synthesis and Pharmacological Characterization of Novel Glucagon-like Peptide-2 (GLP-2) Analogues with Low Systemic Clearance” (J Med Chem, 2016).

How the values were obtained:
Type in all cases: cell-based
HEK293 = assay: Selectivity ratio of EC50 for human GLP1R expressed in HEK293 cells to EC50 for human GLP2R expressed in HEK293
[1] = target: T1, Glucagon-like peptide 2 receptor (Homo sapiens, UniProt O95838); assay: Agonist activity at human GLP2R expressed in HEK293 cells after 5 hrs by luciferase reporter gene assay
T1 sequence (O95838 whole entry): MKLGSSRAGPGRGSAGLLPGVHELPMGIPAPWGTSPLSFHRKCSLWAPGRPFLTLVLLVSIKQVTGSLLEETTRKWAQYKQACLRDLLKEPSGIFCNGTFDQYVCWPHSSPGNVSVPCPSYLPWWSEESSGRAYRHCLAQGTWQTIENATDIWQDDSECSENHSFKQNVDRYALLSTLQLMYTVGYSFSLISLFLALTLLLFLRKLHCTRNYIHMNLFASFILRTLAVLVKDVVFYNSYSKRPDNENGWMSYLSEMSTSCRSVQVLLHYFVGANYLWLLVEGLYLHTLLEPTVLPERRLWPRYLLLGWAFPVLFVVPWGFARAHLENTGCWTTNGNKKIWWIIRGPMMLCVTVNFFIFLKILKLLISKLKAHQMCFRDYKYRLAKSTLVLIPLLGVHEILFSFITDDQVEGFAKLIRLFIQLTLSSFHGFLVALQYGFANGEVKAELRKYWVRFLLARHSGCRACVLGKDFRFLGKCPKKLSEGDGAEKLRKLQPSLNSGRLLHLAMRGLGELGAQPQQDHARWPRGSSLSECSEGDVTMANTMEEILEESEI

[2] = target: Glucagon-like peptide 1 receptor (Homo sapiens, UniProt P43220); assay: Agonist activity at human GLP1R expressed in HEK293 cells after 5 hrs by luciferase reporter gene assay
Chain of Glucagon-like peptide 1 receptor (P43220 whole entry): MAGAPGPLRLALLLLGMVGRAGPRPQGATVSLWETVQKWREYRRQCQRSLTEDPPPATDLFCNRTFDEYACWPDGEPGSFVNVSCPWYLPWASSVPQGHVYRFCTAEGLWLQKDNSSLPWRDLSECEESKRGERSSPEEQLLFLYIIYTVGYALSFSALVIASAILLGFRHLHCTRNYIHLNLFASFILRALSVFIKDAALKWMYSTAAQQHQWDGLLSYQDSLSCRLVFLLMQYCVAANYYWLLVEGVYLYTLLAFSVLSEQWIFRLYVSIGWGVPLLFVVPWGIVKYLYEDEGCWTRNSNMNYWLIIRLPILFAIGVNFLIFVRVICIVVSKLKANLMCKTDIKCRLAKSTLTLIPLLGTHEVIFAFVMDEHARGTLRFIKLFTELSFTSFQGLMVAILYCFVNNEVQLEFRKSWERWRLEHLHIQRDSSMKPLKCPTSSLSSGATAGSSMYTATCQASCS

Row | EC50 [1] [nM] | EC50 [2] [nM] | Compound | Ratio EC50 (HEK293)
1 | – | – | CCCCC(NC(=O)[C@H](CCC(=O)O)NC(=O)[C@H](CC(=O)O)NC(=O)[C@H](CO)NC(=O)[C@H](Cc1ccccc1)NC(=O)[C@H](CO)NC(=O)CNC(=O)[C@H](CC(=O)O)NC(=O)CNC(=O)[C@@H](N)Cc1cnc[nH]1)C(=O)N[C@H](Cc1cccs1)C(=O)N[C@H](C(=O)N[C@H](C(=O)N[C@@H](CC(C)C)C(=O)N[C@@H](CC(=O)O)C(=O)N[C@@H](Cc1ccccc1)C(=O)N[C@@H](CC(C)C)C(=O)N[C@@H](C)C(=O)N[C@@H](C)C(=O)N[C@@H](CCCNC(=N)N)C(=O)N[C@@H](CC(=O)O)C(=O)N[C@@H](Cc1ccccc1)C(=O)N[C@H](C(=O)N[C@@H](CC(N)=O)C(=O)N[C@@H](Cc1c[nH]c2ccccc12)C(=O)N[C@@H](CC(C)C)C(=O)N[C@H](C(=O)N[C@@H](CCC(N)=O)C(=O)N[C@H](C(=O)N[C@@H](CCCCN)C(N)=O)[C@@H](C)O)[C@@H](C)CC)[C@@H](C)CC)[C@@H](C)CC)[C@@H](C)O (some centres not stated) | > 12000
2 | 0.03 | > 1000 | CCCC[C@H](NC(=O)[C@H](CCC(=O)O)NC(=O)[C@H](CC(=O)O)NC(=O)[C@H](CO)NC(=O)[C@H](Cc1ccccc1)NC(=O)[C@H](CO)NC(=O)CNC(=O)[C@H](CC(=O)O)NC(=O)CNC(=O)[C@@H](N)Cc1cnc[nH]1)C(=O)N[C@H](Cc1ccccc1)C(=O)N[C@H](C(=O)N[C@H](C(=O)N[C@@H](CC(C)C)C(=O)N[C@@H](CC(=O)O)C(=O)N[C@@H](CC(C)C)C(=O)N[C@@H](CC(C)C)C(=O)N[C@@H](C)C(=O)N[C@@H](C)C(=O)N[C@@H](CCCNC(=N)N)C(=O)N[C@@H](CC(=O)O)C(=O)N[C@@H](Cc1ccccc1)C(=O)N[C@H](C(=O)N[C@@H](CC(N)=O)C(=O)N[C@@H](Cc1c[nH]c2ccccc12)C(=O)N[C@@H](CC(C)C)C(=O)N[C@H](C(=O)N[C@@H](CCC(N)=O)C(=O)N[C@H](C(=O)N[C@@H](CCCCN)C(=O)N[C@H](C(=O)N[C@H](C(=O)N[C@@H](CC(=O)O)C(=O)NCCOCCOCCOCCOCCC(N)=O)[C@@H](C)O)[C@@H](C)CC)[C@@H](C)O)[C@@H](C)CC)[C@@H](C)CC)[C@@H](C)CC)[C@@H](C)O | –
3 | 0.08 | > 1000 | CCCC[C@H](NC(=O)[C@H](CCC(=O)O)NC(=O)[C@H](CC(=O)O)NC(=O)[C@H](CO)NC(=O)[C@H](Cc1ccccc1)NC(=O)[C@H](CO)NC(=O)CNC(=O)[C@H](CC(=O)O)NC(=O)CNC(=O)[C@@H](N)Cc1cnc[nH]1)C(=O)N[C@H](Cc1cccs1)C(=O)N[C@H](C(=O)N[C@H](C(=O)N[C@@H](CC(C)C)C(=O)N[C@@H](CC(=O)O)C(=O)N[C@@H](Cc1ccccc1)C(=O)N[C@@H](CC(C)C)C(=O)N[C@@H](C)C(=O)N[C@@H](C)C(=O)N[C@@H](CCCNC(=N)N)C(=O)N[C@@H](CC(=O)O)C(=O)N[C@@H](Cc1ccccc1)C(=O)N[C@H](C(=O)N[C@@H](CC(N)=O)C(=O)N[C@@H](Cc1c[nH]c2ccccc12)C(=O)N[C@@H](CC(C)C)C(=O)N[C@H](C(=O)N[C@@H](CCC(N)=O)C(=O)N[C@H](C(=O)N[C@@H](CCCCN)C(N)=O)[C@@H](C)O)[C@@H](C)CC)[C@@H](C)CC)[C@@H](C)CC)[C@@H](C)O | –
4 | 0.1 | > 1000 | CCCC[C@H](NC(=O)[C@H](CCC(=O)O)NC(=O)[C@H](CC(=O)O)NC(=O)[C@H](CO)NC(=O)[C@H](Cc1ccccc1)NC(=O)[C@H](CO)NC(=O)CNC(=O)[C@H](CC(=O)O)NC(=O)CNC(=O)[C@@H](N)Cc1cnc[nH]1)C(=O)N[C@@H](CC(N)=O)C(=O)N[C@H](C(=O)N[C@H](C(=O)N[C@@H](CC(C)C)C(=O)N[C@@H](CC(=O)O)C(=O)N[C@@H](CC1CCCCC1)C(=O)N[C@@H](CC(C)C)C(=O)N[C@@H](C)C(=O)N[C@@H](C)C(=O)N[C@@H](CCCNC(=N)N)C(=O)N[C@@H](CC(=O)O)C(=O)N[C@@H](Cc1ccccc1)C(=O)N[C@H](C(=O)N[C@@H](CC(N)=O)C(=O)N[C@@H](Cc1c[nH]c2ccccc12)C(=O)N[C@@H](CC(C)C)C(=O)N[C@H](C(=O)N[C@@H](CCC(N)=O)C(=O)N[C@H](C(=O)N[C@@H](CCCCN)C(N)=O)[C@@H](C)O)[C@@H](C)CC)[C@@H](C)CC)[C@@H](C)CC)[C@@H](C)O | –
